# Test results published in article PMC5108698 (Biopolymers, 2016).
# Entries after “also recorded” stand apart in the source; their conditions may differ.
# Experiments:
# [1] = biological target: pancreatic trypsin (Sus scrofa, UniProt P00761); assay: Trypsin inhibitory assay; format: biochemical; details: recombinantly produced SFTI-1
# [2] = NMR characterization in solution; format: physicochemical; details: in-cell produced SFTI-1, approximately 0.2 mM, 80 mM potassium phosphate pH 6.5, 90% H2O/10% 2H2O, 298 K
# [3] = test system: trypsin (trypsin-sepharose beads); details: incubated with trypsin; ref [34]; cited from earlier work
# [4] = ref [10], [12]; cited from earlier work
# [5] = test system: mammalian cells; details: ref [13]; cited from earlier work
# [6] = test system: cellular membranes; details: ref [13]; cited from earlier work
# pancreatic trypsin, sequence (P00761 9-231): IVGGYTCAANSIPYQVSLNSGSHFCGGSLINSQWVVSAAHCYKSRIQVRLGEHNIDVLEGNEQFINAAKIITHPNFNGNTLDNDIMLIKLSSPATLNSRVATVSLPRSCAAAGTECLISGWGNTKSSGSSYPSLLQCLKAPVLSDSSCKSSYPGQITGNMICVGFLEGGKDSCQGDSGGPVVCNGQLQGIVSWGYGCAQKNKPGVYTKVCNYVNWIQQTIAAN
compound,measurement,setting,value
"CC[C@H](C)[C@@H]1NC(=O)[C@@H]2CCCN2C(=O)[C@@H]2CCCN2C(=O)[C@H]([C@@H](C)CC)NC(=O)[C@H](CO)NC(=O)[C@H](CCCCN)NC(=O)[C@H]([C@@H](C)O)NC(=O)[C@@H]2CSSC[C@H](NC1=O)C(=O)N[C@@H](Cc1ccccc1)C(=O)N1CCC[C@H]1C(=O)N[C@@H](CC(=O)O)C(=O)NCC(=O)N[C@@H](CCCNC(=N)N)C(=O)N2 [SFTI-1, sunflower trypsin inhibitor 1]",inhibition of trypsin,[1],actively inhibit trypsin; also recorded: fully active
same,aggregation state in solution,[2],monodispersed
same,equilibrium between cyclic and linear forms with trypsin,[3],reach equilibrium between the cyclic and the linear forms when incubated with trypsin
same,stability to thermal or enzymatic degradation,[4],exceptional stability to thermal or enzymatic degradation
same,toxicity to mammalian cells,[5],non-toxic to mammalian cells
same,crossing of cellular membranes,[6],able to cross cellular membranes
